Assay results reported in the supplement of paper PMC10307832.

Legend:
Test in all cases: relative viability (nuclei count vs DMSO), 5 days (fraction); higher = more cells survive
BI-D1870 + Palbociclib = compound: CC(C)CCN1c2nc(Nc3cc(F)c(O)c(F)c3)ncc2N(C)C(=O)C1C [BI-D1870] + CC(=O)c1c(C)c2cnc(Nc3ccc(N4CCNCC4)cn3)nc2n(C2CCCC2)c1=O [Palbociclib] (partner 0.5 µM)
How it was run: (§1)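 Lung cancer cell lines in 1536-well plates were dosed by pin tool the day after seeding, either with one drug alone or with a fixed anchor-drug dose plus five library-drug doses (not always all listed) in √10 steps. After 5 days, cells were fixed and their nuclei stained in one step (final 0.05% Triton X-100, 1% formaldehyde, 1 ug/ml Hoechst), then counted on 4× images. Relative viability is the nuclei count in treated wells divided by that in vehicle wells. Values are medians of duplicate plates.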

Zebularine + Bortezomib = compound: O=c1ncccn1[C@@H]1O[C@H](CO)[C@@H](O)[C@H]1O [Zebularine] + CC(C)C[C@H](NC(=O)[C@H](Cc1ccccc1)NC(=O)c1cnccn1)B(O)O [Bortezomib] (partner 0.002 µM)
How it was run: as §1

BI-D1870 + Crizotinib = compound: CC(C)CCN1c2nc(Nc3cc(F)c(O)c(F)c3)ncc2N(C)C(=O)C1C [BI-D1870] + C[C@@H](Oc1cc(-c2cnn(C3CCNCC3)c2)cnc1N)c1c(Cl)ccc(F)c1Cl [Crizotinib] (partner 1 µM)
How it was run: as §1

Zebularine + Vorinostat = compound: O=c1ncccn1[C@@H]1O[C@H](CO)[C@@H](O)[C@H]1O [Zebularine] + O=C(CCCCCCC(=O)Nc1ccccc1)NO [Vorinostat] (partner 1 µM)
How it was run: as §1

Cell Line	relative viability (BI-D1870 + Palbociclib; first compound 0.04 µM)	relative viability (BI-D1870 + Palbociclib; first compound 0.1265 µM)	relative viability (BI-D1870 + Palbociclib; first compound 0.4 µM)	relative viability (BI-D1870 + Palbociclib; first compound 1.265 µM)	relative viability (BI-D1870 + Palbociclib; first compound 4 µM)	relative viability (Zebularine + Bortezomib; first compound 1 µM)	relative viability (Zebularine + Bortezomib; first compound 3.162 µM)	relative viability (Zebularine + Bortezomib; first compound 10 µM)	relative viability (Zebularine + Bortezomib; first compound 31.62 µM)	relative viability (Zebularine + Bortezomib; first compound 100 µM)	relative viability (BI-D1870 + Crizotinib; first compound 0.04 µM)	relative viability (BI-D1870 + Crizotinib; first compound 0.1265 µM)	relative viability (BI-D1870 + Crizotinib; first compound 0.4 µM)	relative viability (BI-D1870 + Crizotinib; first compound 1.265 µM)	relative viability (BI-D1870 + Crizotinib; first compound 4 µM)	relative viability (Zebularine + Vorinostat; first compound 1 µM)	relative viability (Zebularine + Vorinostat; first compound 3.162 µM)	relative viability (Zebularine + Vorinostat; first compound 10 µM)	relative viability (Zebularine + Vorinostat; first compound 31.62 µM)	relative viability (Zebularine + Vorinostat; first compound 100 µM)
201T	0.358	0.339	0.362	0.365	0.356	1.13	1.1	1	1.15	1.11	1.02	1.02	1.04	1.07	1.03	0.944	0.921	0.955	1.05	1.02
A549	–	–	–	–	–	–	–	–	–	–	0.873	0.708	0.76	0.618	0.158	–	–	–	–	–
A-427	0.59	0.488	0.532	0.555	0.495	1.12	0.899	0.665	0.381	0.247	0.992	0.86	0.825	1.11	0.857	0.96	0.855	0.703	0.666	0.361
ABC-1	0.973	0.708	0.667	0.849	0.679	0.295	0.248	0.249	0.275	0.349	1.19	0.49	1.12	0.988	0.591	1.15	1.02	0.701	0.835	0.575
BEN	0.486	0.45	0.472	0.46	0.423	0.938	0.714	0.345	0.372	0.265	1.12	0.722	1.01	0.99	0.822	0.701	0.603	0.486	0.411	0.373
CAL-12T	0.593	0.399	0.34	0.336	0.203	1.22	1.01	–	0.68	0.483	0.598	0.53	0.662	0.506	0.283	1.16	0.96	0.452	0.897	0.54
COR-L23	0.281	0.24	0.315	0.257	0.278	0.928	1.13	0.363	0.318	0.251	0.703	0.639	0.692	0.72	0.544	0.511	0.475	0.389	0.299	0.174
COR-L 105	0.412	0.395	0.407	0.41	0.425	0.978	0.771	0.694	1.21	0.843	0.858	0.79	0.777	0.754	0.574	1.38	0.898	0.734	0.945	0.619
Calu-6	–	–	–	–	–	1.04	0.85	0.914	0.77	0.306	0.883	0.741	0.886	0.597	0.629	–	–	–	–	–
ChaGo-K-1	0.907	0.876	0.887	0.978	0.949	1.27	0.982	0.558	0.678	0.284	1.19	1.09	1.08	1.06	0.994	0.767	0.648	0.442	0.274	0.252
EBC-1	–	–	–	–	–	0.528	0.547	0.508	0.572	0.623	0.16	0.182	0.209	0.188	0.134	–	–	–	–	–
EKVX	0.472	0.366	0.352	0.385	0.341	1.27	1.05	–	0.88	1.06	0.929	0.986	0.92	0.941	0.816	0.772	0.745	–	0.819	0.635
EMC-BAC-2	0.555	0.505	0.511	0.544	0.483	1.1	1.09	0.732	1.09	1.11	0.847	0.739	0.726	0.853	0.835	0.521	0.481	0.495	0.42	0.481
EPLC-272H	0.323	0.358	0.306	0.288	0.23	1	–	–	1.07	0.836	0.926	0.86	0.904	0.972	0.931	0.419	0.32	–	0.42	0.178
H3255	0.335	0.311	0.325	0.335	0.321	0.897	0.736	0.419	0.775	0.942	0.831	0.924	0.862	0.987	0.981	0.793	0.864	–	0.795	0.75
HARA	0.219	0.234	0.263	0.272	0.23	1.14	1.11	–	1.09	0.86	1.15	0.941	0.994	1.24	0.922	0.613	0.541	–	0.323	0.213
HCC-15	0.701	0.64	0.722	0.746	0.681	1.19	1.03	0.723	0.962	0.456	0.919	0.733	0.74	0.81	0.594	0.986	0.9	0.665	0.759	0.436
HCC-44	0.966	0.901	0.919	1.01	0.946	0.95	0.868	0.483	0.827	0.251	0.921	0.798	0.771	0.851	0.829	1.15	1.14	1.09	1.19	0.553
